Results reported in PubChem BioAssay (NCI).
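Five concentrations, 48 hours, 96-well plates. TGI: concentration producing complete growth inhibition.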

Columns and labels:
Assay in all cases: NCI-60 cell line screen, 48 h
[1] = tested on: UACC-257 melanoma
[2] = tested on: CCRF-CEM leukemia
[3] = tested on: NCI-H522 lung
[4] = tested on: SK-OV-3 ovarian
[5] = tested on: EKVX NSCLC
[6] = tested on: KM20L2 colon
[7] = tested on: OVCAR-8 ovarian
[8] = tested on: M14 melanoma
[9] = tested on: SR leukemia
[10] = tested on: SNB-19 CNS
[11] = tested on: U251 CNS
[12] = tested on: UACC-62 melanoma
[13] = tested on: KM12 colon
[14] = tested on: UO-31 renal
[15] = tested on: IGROV1 ovarian
[16] = tested on: ACHN renal
[17] = tested on: DMS 273 small cell lung
[18] = tested on: COLO 205 colon
[19] = tested on: SNB-78 CNS
[20] = tested on: LOX IMVI melanoma
[21] = tested on: M19-MEL melanoma
[22] = tested on: HL-60(TB) leukemia
[23] = tested on: SNB-75 CNS
[24] = tested on: DLD-1 colon
[25] = tested on: HCC-2998 colon
[26] = tested on: DMS 114 small cell lung
[27] = tested on: K-562 leukemia
[28] = tested on: SF-539 CNS
[29] = tested on: HOP-62 NSCLC
[30] = tested on: LXFL 529 NSCLC
[31] = tested on: SK-MEL-28 melanoma
[32] = tested on: SW-620 colon
[33] = tested on: NCI-H226 lung
[34] = tested on: SF-268 CNS
[35] = tested on: MOLT-4 leukemia
[36] = tested on: NCI-H23 lung
[37] = tested on: HCT-15 colon
[38] = tested on: HT29 colon
[39] = tested on: SN12C renal
[40] = tested on: 786-0 renal
[41] = tested on: RPMI-8226 leukemia
[42] = tested on: OVCAR-3 ovarian
[43] = tested on: MALME-3M melanoma
[44] = tested on: TK-10 renal
[45] = tested on: NCI-H460 lung
[46] = tested on: HCT-116 colon
[47] = tested on: A549 NSCLC
[48] = tested on: SF-295 CNS
[49] = tested on: MDA-MB-231 breast
[50] = tested on: MDA-MB-435
[51] = tested on: HOP-92 NSCLC
[52] = tested on: OVCAR-4 ovarian
[53] = tested on: T-47D breast
[54] = tested on: SK-MEL-2 melanoma
[55] = tested on: MCF7 breast
[56] = tested on: BT-549 breast
[57] = tested on: A498 renal
[58] = tested on: DU-145 prostate
[59] = tested on: OVCAR-5 ovarian
[60] = tested on: PC-3 prostate
[61] = tested on: SK-MEL-5 melanoma
[62] = tested on: MDA-N
[63] = tested on: CAKI-1 renal
[64] = tested on: NCI/ADR-RES ovarian
[65] = tested on: HS 578T breast
[66] = tested on: RXF 393 renal

## COc1cc(C=O)cc(O)c1O
[1]
  TGI: > 100 µM
[2]
  TGI: > 100 µM
[3]
  TGI: > 100 µM
[4]
  TGI: > 100 µM
[5]
  TGI: > 100 µM
[6]
  TGI: > 100 µM
[7]
  TGI: > 100 µM
[8]
  TGI: > 100 µM
[9]
  TGI: > 100 µM
[10]
  TGI: > 100 µM
[11]
  TGI: > 100 µM
[12]
  TGI: > 100 µM
[13]
  TGI: > 100 µM
[14]
  TGI: > 100 µM
[15]
  TGI: > 100 µM
[16]
  TGI: > 100 µM
[17]
  TGI: > 100 µM
[18]
  TGI: > 100 µM
[19]
  TGI: > 100 µM
[20]
  TGI: > 100 µM
[21]
  TGI: > 100 µM
[22]
  TGI: > 100 µM
[23]
  TGI: > 100 µM
[24]
  TGI: > 100 µM
[25]
  TGI: > 100 µM
[26]
  TGI: > 100 µM
[27]
  TGI: > 100 µM
[28]
  TGI: > 100 µM
[29]
  TGI: > 100 µM
[30]
  TGI: > 100 µM
[31]
  TGI: > 100 µM
[32]
  TGI: > 100 µM
[33]
  TGI: > 100 µM
[34]
  TGI: > 100 µM
[35]
  TGI: > 100 µM
[36]
  TGI: > 100 µM
[37]
  TGI: > 100 µM
[38]
  TGI: > 100 µM
[39]
  TGI: > 100 µM
[40]
  TGI: > 100 µM
[41]
  TGI: > 100 µM
[42]
  TGI: > 100 µM
[43]
  TGI: > 100 µM
[44]
  TGI: > 100 µM
[45]
  TGI: > 100 µM
[46]
  TGI: > 100 µM
[47]
  TGI: > 100 µM
[48]
  TGI: > 100 µM

## COc1cc2c[n+](C)c3c(c2cc1OC)Cc1cc2c(cc1-3)OCO2
[1]
  TGI: > 100 µM
[2]
  TGI: > 100 µM
[3]
  TGI: > 100 µM
[49]
  TGI: > 100 µM
[4]
  TGI: > 100 µM
[5]
  TGI: > 100 µM
[50]
  TGI: > 100 µM
[7]
  TGI: > 100 µM
[8]
  TGI: > 100 µM
[9]
  TGI: > 100 µM
[10]
  TGI: > 100 µM
[51]
  TGI: > 100 µM
[52]
  TGI: > 100 µM
[11]
  TGI: > 100 µM
[12]
  TGI: > 100 µM
[53]
  TGI: > 100 µM
[13]
  TGI: > 100 µM
[14]
  TGI: > 100 µM
[54]
  TGI: > 100 µM
[15]
  TGI: > 100 µM
[55]
  TGI: > 100 µM
[18]
  TGI: > 100 µM
[56]
  TGI: > 100 µM
[20]
  TGI: > 100 µM
[57]
  TGI: > 100 µM
[22]
  TGI: > 100 µM
[23]
  TGI: > 100 µM
[58]
  TGI: > 100 µM
[59]
  TGI: > 100 µM
[27]
  TGI: > 100 µM
[28]
  TGI: > 100 µM
[29]
  TGI: > 100 µM
[60]
  TGI: > 100 µM
[31]
  TGI: > 100 µM
[32]
  TGI: > 100 µM
[33]
  TGI: > 100 µM
[34]
  TGI: > 100 µM
[35]
  TGI: > 100 µM
[36]
  TGI: > 100 µM
[61]
  TGI: > 100 µM
[37]
  TGI: > 100 µM
[38]
  TGI: > 100 µM
[62]
  TGI: > 100 µM
[63]
  TGI: > 100 µM
[39]
  TGI: > 100 µM
[40]
  TGI: > 100 µM
[41]
  TGI: > 100 µM
[42]
  TGI: > 100 µM
[43]
  TGI: > 100 µM
[64]
  TGI: > 100 µM
[65]
  TGI: > 100 µM
[44]
  TGI: > 100 µM
[46]
  TGI: > 100 µM
[47]
  TGI: > 100 µM
[48]
  TGI: > 100 µM

## COC1CC(O[C@H]2CC[C@@]3(C)[C@@H](CC[C@]4(O)[C@@H]3CC[C@]3(C)[C@@H](C(C)=O)[C@H](OC(=O)CC(C)C)[C@@H](OC(=O)c5ccccc5)[C@@]34O)C2)OC(C)C1OC1CC(OC)C(OC2OC(C)C(O)C(OC)C2O)C(C)O1 (stereo not given in full)
[1]
  TGI: > 25 µM
[2]
  TGI: > 25 µM
[3]
  TGI: > 25 µM
[49]
  TGI: > 25 µM
[4]
  TGI: > 25 µM
[5]
  TGI: > 25 µM
[50]
  TGI: > 25 µM
[7]
  TGI: > 25 µM
[8]
  TGI: > 25 µM
[9]
  TGI: > 25 µM
[10]
  TGI: > 25 µM
[51]
  TGI: 24.8 µM
[52]
  TGI: > 25 µM
[11]
  TGI: > 25 µM
[53]
  TGI: > 25 µM
[13]
  TGI: > 25 µM
[14]
  TGI: > 25 µM
[54]
  TGI: > 25 µM
[15]
  TGI: > 25 µM
[55]
  TGI: > 25 µM
[16]
  TGI: > 25 µM
[18]
  TGI: 12.4 µM
[56]
  TGI: > 25 µM
[20]
  TGI: > 25 µM
[57]
  TGI: > 25 µM
[22]
  TGI: > 25 µM
[23]
  TGI: > 25 µM
[58]
  TGI: > 25 µM
[25]
  TGI: > 25 µM
[59]
  TGI: > 25 µM
[27]
  TGI: > 25 µM
[28]
  TGI: > 25 µM
[29]
  TGI: > 25 µM
[60]
  TGI: > 25 µM
[31]
  TGI: > 25 µM
[32]
  TGI: > 25 µM
[33]
  TGI: > 25 µM
[34]
  TGI: > 25 µM
[66]
  TGI: > 25 µM
[35]
  TGI: 22.4 µM
[36]
  TGI: > 25 µM
[61]
  TGI: > 25 µM
[37]
  TGI: > 25 µM
[38]
  TGI: > 25 µM
[62]
  TGI: > 25 µM
[63]
  TGI: > 25 µM
[39]
  TGI: > 25 µM
[40]
  TGI: > 25 µM
[41]
  TGI: 14.5 µM
[42]
  TGI: > 25 µM
[43]
  TGI: > 25 µM
[64]
  TGI: > 25 µM
[65]
  TGI: > 25 µM
[44]
  TGI: > 25 µM
[45]
  TGI: > 25 µM
[46]
  TGI: > 25 µM
[47]
  TGI: > 25 µM
[48]
  TGI: > 25 µM

## O=C(N/N=C/C=C/c1ccc([N+](=O)[O-])o1)c1ccc(C(=O)N/N=C/C=C/c2ccc([N+](=O)[O-])o2)cc1
[1]
  TGI: > 30 µM
[2]
  TGI: > 20.3 µM
[3]
  TGI: 89 µM
[49]
  TGI: 97.3 µM
[4]
  TGI: > 100 µM
[5]
  TGI: > 100 µM
[50]
  TGI: > 73.8 µM
[7]
  TGI: 27.7 µM
[8]
  TGI: 49.7 µM
[9]
  TGI: > 73.4 µM
[10]
  TGI: > 100 µM
[51]
  TGI: > 100 µM
[52]
  TGI: > 100 µM
[11]
  TGI: > 52.8 µM
[12]
  TGI: > 100 µM
[53]
  TGI: > 69.2 µM
[13]
  TGI: > 100 µM
[14]
  TGI: > 100 µM
[54]
  TGI: > 100 µM
[15]
  TGI: > 100 µM
[55]
  TGI: > 100 µM
[16]
  TGI: > 59.1 µM
[18]
  TGI: > 100 µM
[56]
  TGI: > 100 µM
[20]
  TGI: > 75.8 µM
[57]
  TGI: > 100 µM
[22]
  TGI: > 65.2 µM
[23]
  TGI: > 100 µM
[58]
  TGI: > 73.4 µM
[25]
  TGI: > 28.5 µM
[59]
  TGI: > 100 µM
[27]
  TGI: > 93.5 µM
[28]
  TGI: 22.3 µM
[29]
  TGI: > 100 µM
[60]
  TGI: > 52.3 µM
[31]
  TGI: > 100 µM
[32]
  TGI: 98.5 µM
[33]
  TGI: > 100 µM
[34]
  TGI: > 58.5 µM
[66]
  TGI: 84 µM
[35]
  TGI: > 43.6 µM
[36]
  TGI: > 100 µM
[61]
  TGI: 99.7 µM
[37]
  TGI: > 100 µM
[38]
  TGI: > 100 µM
[62]
  TGI: > 84.8 µM
[63]
  TGI: > 90 µM
[39]
  TGI: > 54.5 µM
[40]
  TGI: > 72.1 µM
[41]
  TGI: > 32.9 µM
[42]
  TGI: > 100 µM
[43]
  TGI: 35.2 µM
[64]
  TGI: > 92.8 µM
[65]
  TGI: > 100 µM
[44]
  TGI: > 69.7 µM
[45]
  TGI: > 88.5 µM
[46]
  TGI: 25.7 µM
[47]
  TGI: > 100 µM
[48]
  TGI: > 100 µM
